Data from patent publication US11484543B2, “Compositions and methods for diagnosing and treating diseases and disorders associated with mutant KCNJ5” (The Rockefeller University, priority 2017, dated 2022).
Changes are numbered by the printed parent chain. pIC50: −log10 of the molar value. Like-named read-outs stand apart in the source and are kept apart here.

Columns and labels:
Type in all cases: cell-based
[1] = biological target: T1, KCNJ5^G151R (Homo sapiens, UniProt P48544, G151R); assay: cell-based
T1 construct: expressed in transfected cells
T1 sequence (P48544 1-419 G151R): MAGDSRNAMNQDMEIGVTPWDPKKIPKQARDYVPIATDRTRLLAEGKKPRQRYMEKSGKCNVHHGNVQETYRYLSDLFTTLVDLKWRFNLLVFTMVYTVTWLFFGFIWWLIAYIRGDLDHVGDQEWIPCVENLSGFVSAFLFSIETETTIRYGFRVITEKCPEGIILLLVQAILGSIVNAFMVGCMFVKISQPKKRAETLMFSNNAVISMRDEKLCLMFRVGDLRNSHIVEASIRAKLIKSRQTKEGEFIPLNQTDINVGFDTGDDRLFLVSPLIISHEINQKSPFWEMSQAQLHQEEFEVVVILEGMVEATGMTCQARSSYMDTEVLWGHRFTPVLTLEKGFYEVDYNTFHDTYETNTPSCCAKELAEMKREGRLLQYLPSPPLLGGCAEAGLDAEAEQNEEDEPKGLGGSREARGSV
How it was run: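 Viability is read as cellular ATP by CellTiter-Glo luminescence 72 h later at 37 °C. Uninduced and induced untreated cells set 100% and 0% effect; curves use a 4-parameter logistic fit.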

[2] = biological target: T2, KCNJ5^L168R (Homo sapiens, UniProt P48544, L168R); assay: Cell viability assay (ATP, CellTiter-Glo): rescue of KCNJ5^L168R-induced lethality in inducible HEK293 cells
T2 construct: expressed in transfected cells
T2 sequence (P48544 1-419 L168R): T1 sequence (P48544 1-419 G151R) with R151G, L168R
Description: (§1) WT or mutant human KCNJ5 cDNAs (Choi et al., 2011, Science 331:768-772) were subcloned into the pcDNA5/FRT/TO vector using BamHI and HindIII. Single copies of WT or mutant human KCNJ5 cDNAs expressed under the control of tetracycline-inducible promoter were introduced into HEK293 cells using the Flp-in T-Rex System (Invitrogen) according to the manufacturer's instructions. Cells were grown in selective media containing 10% Tet-system approved FBS (Clontech) until induction.
Assay plates were centrifuged and incubated overnight at 37° C. 20 nL was transferred from the compound source plate to the cell assay plate using an Aquarius (Tecan) with a 384-well pin tool (V&P Scientific). The final concentration of compound for screening was 10 μM and the final DMSO concentration was 0.1%. 1 μL of tetracycline (final concentration 1 μg/mL) was added to compound containing and negative control wells by Multidrop Combi to induce expression. 1 μL of media was added to positive control wells. Assay plates were centrifuged and incubated for 72 hours at 37° C., 5% CO2. CellTiter-Glo (Promega) was used to measure cell viability in the assay wells according to the manufacturer's instructions. 10 μL/well of CellTiter-Glo reagent was added to the assay plates using a MultiDrop Combi. The plates were shaken on a Thermomixer R (Eppendorf) at 1100 rpm for 1 minute and incubated in the dark for 10 minutes at room temperature. Luminescence was read on an Envision plate reader (PerkinElmer) with 0.3 second sampling time per well. Raw data (luminescence counts per second) was normalized to percent effect by the formula 100−(((sample−negative control mean)/(positive control mean−negative control mean))*100).
Data was analyzed using the programs Excel (Microsoft) and Prism (GraphPad). Errors are SD unless otherwise indicated in the legend. Dose-response curves were fitted with a four-parameter logistic equation: F(x)=D+(A−D)/(1+(x/C)^B), with A=minimum inhibition B=Hill's slope C=inflection point D=maximum inhibition Synthesis of Macrolide Derivatives
Cellular ATP levels were measured as a proxy for cell viability, using a commercially available luciferase assay (Crouch et al., 1993, Proc. Natl. Acad. Sci. U.S.A. 109:2533-2538).
Conditions were designed to maximize reproducibility and the signal-to-background ratios (S/B) (Zhang et al., 1999, J. Biomol. Screen 4:67-73) comparing ATP level in uninduced and induced cells. Screening was performed in 384-well plates; compounds were added 24 hours after plating, and channel expression was induced immediately after compound addition. ATP levels were measured 72 hours after induction.

[3] = biological target: T3, KCNJ5^WT (Homo sapiens, UniProt P48544); assay: Membrane potential assay (FLIPR dye) in inducible KCNJ5^WT HEK293 cells; conditions: for WT IC50: 10-point dilution 20 to 0.0391 μM, N=3, four-parameter fit
T3 construct: expressed in transfected cells
T3 sequence (P48544 1-419): T1 sequence (P48544 1-419 G151R) with R151G
Description: as §1, with “Single” for “WT or mutant human KCNJ5 cDNAs (Choi et al., 2011, Science 331:768-772) were subcloned into the pcDNA5/FRT/TO vector using BamHI and HindIII. Single”
20 μL of WT cells were plated into sterile black with clear bottom tissue culture-treated 384-well plates (Corning) at a density of 10000 cells/well using a Multidrop Combi. Assay plates were centrifuged at 500 rpm for 10 seconds and incubated overnight at 37° C. in a humidified 5% CO2 incubator. After the overnight incubation, 1 μL of tetracycline (final conc. 1 μg/mL) was added to all wells by Multidrop Combi to induce KCNJ5. Assay plates were centrifuged at 500 rpm for 10 seconds and incubated overnight at 37° C. in a humidified 5% CO2 incubator. The next day, 10 μL of medium was removed from each well using a PlateMate Plus (Thermo Scientific). 10 μL of Blue Formula FLIPR membrane potential dye (Molecular Devices) was added to cells using a Multichannel pipettor. Assay plates were incubated for 30 minutes. at 37° C. After incubation, 20 nL was transferred twice from the compound source plate to the cell assay plate using an Aquarius with a 384-well pin tool for a total transfer volume of 40 nL and a final DMSO concentration of 0.2%. 1 μL of 20 mM BaCl2 was added to positive control wells using a Multichannel pipettor. The assay plate was incubated 20 minutes at room temperature in the dark.
Changes in membrane potential were detected using a well-established fluorescence-based measure of membrane potential (FIG. 4).

[4] = 10-point dilution 20 to 0.0391 μM, N=3, four-parameter fit
[5] = tested as in FIG. 7 (FIGS. 9 and 10)

Row | SMILES | G151R maximum inhibition [1, 4] | G151R minimum inhibition [1, 4] | pIC50 [1, 4] | viability at 10 µM ([1]; HEK293, 72 h, mean of primary screen and hit pick, read-out: mean % effect) | viability at 10 µM ([1]; HEK293, ATP level 72 h after induction, uninduced = 100%, induced = 0% effect, first of the two runs (primary screen / hit pick), read-out: % effect (1)) | viability at 10 µM ([1]; HEK293, ATP level 72 h after induction, uninduced = 100%, induced = 0% effect, second of the two runs (primary screen / hit pick, confirmatory testing), read-out: % effect (2)) | pIC50 [2, 4] | L168R maximum inhibition [2, 4] | L168R minimum inhibition [2, 4] | dose response on KCNJ5^L168R ([2]; tested at 1.1, 3.3 and 10 μM) | WT IC50 [3] | inhibition of KCNJ5^G151R by synthesized macrolide derivatives [1, 5] | inhibition of KCNJ5^L168R by synthesized macrolide derivatives [2, 5] | inhibition of KCNJ5^WT by synthesized macrolide derivatives [3, 5] | G151R IC50 [1, 4] | inhibition of KCNJ5^MUT (structure-activity statement) ([1]; macrolide series, dilution curves) | L168R IC50 [2, 4] | WT IC50 ([3]; listed as idremcinal)
1 | CC[C@H]1OC(=O)[C@H](C)[C@@H](O[C@H]2C[C@@](C)(OC)[C@@H](O)[C@H](C)O2)[C@H](C)[C@@H](O[C@@H]2O[C@H](C)C[C@H](N(C)C)[C@H]2O)[C@](C)(O)C[C@@H](C)C(=O)[C@H](C)[C@@H](O)[C@]1(C)O [Erythromycin, erythromycin] | 90.00% | 3.55% | 4.98 | 73% | 91.9% | 54.2% | 4.93 | 25.00% | 0.71% | showed a dose response | No fit | – | – | – | – | – | – | –
2 | CCCCN(C)[C@H]1C[C@@H](C)O[C@@H](O[C@@H]2[C@@H](C)[C@H](O[C@H]3C[C@@](C)(OC)[C@@H](O)[C@H](C)O3)[C@@H](C)C(=O)O[C@H](CC)[C@@](C)(O)[C@H](O)[C@@H](C)[C@@H](O)[C@H](C)C[C@@]2(C)O)[C@@H]1O [PLUX33, N-demethyl-9-deoxo-9-hydroxy-N-butyl-(9S)-erythromycin] | – | – | – | – | – | – | – | – | – | – | – | significant inhibition | significant inhibition | no inhibition | – | – | – | –
3 | CC[C@H]1OC(=O)[C@H](C)[C@@H](O[C@H]2C[C@@](C)(OC)[C@@H](O)[C@H](C)O2)[C@H](C)[C@@H](O[C@@H]2O[C@H](C)C[C@H](N(C)C)[C@H]2O)[C@](C)(O)C[C@](C)(F)C(=O)[C@H](C)[C@@H](O)[C@]1(C)O [Flurithromycin, flurithromycin] | – | – | – | – | – | – | – | – | – | – | No fit | – | – | – | No fit | negligible activity | No fit | –
4 | CC[C@H]1OC(=O)[C@H](C)[C@@H](O[C@H]2C[C@@](C)(OC)[C@@H](O)[C@H](C)O2)[C@H](C)[C@@H](O[C@@H]2O[C@H](C)C[C@H](N(C)C(C)C)[C@H]2O)[C@@]2(C)CC(C)=C(O2)[C@H](C)[C@@H](O)[C@]1(C)O [Idremcinal, idremcinal] | 93.39% | 6.38% | 6.22 | – | – | – | 5.70 | 66.69% | −1.28% | – | No fit | – | – | – | – | – | – | no dose response
